# Data as given in patent publication US20160250213A1, “FORMULATIONS OF AZAINDOLE COMPOUNDS” (priority 2013, published 2016).
# Counter-ions that a name gives are not always drawn. Like-named read-outs stand apart in the source and are kept apart here.
# Key:
# physchem = details: water, thermodynamic from solid
# [1] = Water activity tests: competition slurry in IPA/water mixtures; type: physicochemical
# [2] = Hydrate formation of free base versus humidity / water activity; type: physicochemical; details: ambient temperature
# [3] = solvent Acetonitrile, ambient temperature, listed as Form A HCl salt of Compound (1)
# [4] = solvent Chloroform, ambient temperature, listed as Form A HCl salt of Compound (1)
# [5] = solvent Cyclohexane, ambient temperature
# [6] = solvent Dimethylsulfoxide, ambient temperature, listed as Form A HCl salt of Compound (1)
# [7] = solvent Ethylene glycol, ambient temperature
# [8] = solvent Formic acid, ambient temperature, listed as Form A HCl salt of Compound (1)
# [9] = solvent Hexane, ambient temperature
# [10] = solvent Methanol, ambient temperature
# [11] = solvent Methylcyclohexane, ambient temperature
# [12] = solvent Tetralin, ambient temperature
# [13] = solvent 1,4-Dioxane, ambient temperature
# [14] = solvent 1-Pentanol, ambient temperature
# [15] = solvent 1-Propanol, ambient temperature
# [16] = solvent 2-Butanol, ambient temperature
# [17] = solvent 2-Ethoxyethanol, ambient temperature
# [18] = solvent 2-Methoxyethanol, ambient temperature
# [19] = solvent 2-Propanol, ambient temperature
# [20] = solvent Acetone, ambient temperature
# [21] = solvent Dimethylsulfoxide, ambient temperature
# [22] = solvent Ethanol, ambient temperature
# [23] = solvent Formic acid, ambient temperature
# [24] = solvent Methyl acetate, ambient temperature
# [25] = solvent Methyl tetrahydrofuran, ambient temperature
# [26] = solvent Methylethyl ketone, ambient temperature
# [27] = solvent N,N-Dimethylacetamide, ambient temperature
# [28] = solvent N,N-Dimethylformamide, ambient temperature
# [29] = solvent Tetrahydrofuran, ambient temperature
# [30] = solvent t-Butylmethylether, ambient temperature
# [31] = solvent xylene, ambient temperature
smiles,measurement,setting,value
O=C(O)[C@H]1C2CCC(CC2)C1Nc1nc(-c2c[nH]c3ncc(F)cc23)ncc1F (stereo partly shown) [Form A of HCl salt of Compound (1).½H2O],solubility thermodynamic,physchem,600 µg/mL
same,form conversion in competition slurry,[1],converted to Form F
same,Sol.,"solvent 1,1,2-Trichloroethane, ambient temperature, listed as Form A HCl salt of Compound (1)",<0.1 mg/mL
same,Sol.,"solvent 1,2-Dichloroethane, ambient temperature, listed as Form A HCl salt of Compound (1)",1.7 mg/mL
same,Sol.,"solvent 1,2-Dimethoxyethane, ambient temperature, listed as Form A HCl salt of Compound (1)",0.5 mg/mL
same,Sol.,"solvent 1,4-Dioxane, ambient temperature, listed as Form A HCl salt of Compound (1)",0.4 mg/mL
same,Sol.,"solvent 1-Butanol, ambient temperature, listed as Form A HCl salt of Compound (1)",2.9 mg/mL
same,Sol.,"solvent 1-Pentanol, ambient temperature, listed as Form A HCl salt of Compound (1)",3.3 mg/mL
same,Sol.,"solvent 1-Propanol, ambient temperature, listed as Form A HCl salt of Compound (1)",10.7 mg/mL
same,Sol.,"solvent 2-Butanol, ambient temperature, listed as Form A HCl salt of Compound (1)",2.9 mg/mL
same,Sol.,"solvent 2-Methoxyethanol, ambient temperature, listed as Form A HCl salt of Compound (1)",34.1 mg/mL
same,Sol.,"solvent 2-Methy-1-propanol, ambient temperature, listed as Form A HCl salt of Compound (1)",3.5 mg/mL
same,Sol.,"solvent 2-Propanol, ambient temperature, listed as Form A HCl salt of Compound (1)",3.3 mg/mL
same,Sol.,"solvent 3-Methyl-1-butanol, ambient temperature, listed as Form A HCl salt of Compound (1)",3.2 mg/mL
same,Sol.,"solvent Acetone, ambient temperature, listed as Form A HCl salt of Compound (1)",1.5 mg/mL
same,Resulting Form,[3],Solvate
same,Sol.,[3],0.5 mg/mL
same,Sol.,"solvent Anisole, ambient temperature, listed as Form A HCl salt of Compound (1)",<0.1 mg/mL
same,Sol.,"solvent Butyl acetate, ambient temperature, listed as Form A HCl salt of Compound (1)",0.2 mg/mL
same,Sol.,"solvent Chlorobenzene, ambient temperature, listed as Form A HCl salt of Compound (1)",<0.1 mg/mL
same,Resulting Form,[4],Solvate
same,Sol.,[4],<0.1 mg/mL
same,Sol.,"solvent Cumene, ambient temperature, listed as Form A HCl salt of Compound (1)",<0.1 mg/mL
same,Sol.,[5],<0.1 mg/mL
same,Sol.,"solvent Dichloromethane, ambient temperature, listed as Form A HCl salt of Compound (1)",0.1 mg/mL
same,Resulting Form,[6],Solvate
same,Sol.,[6],346.5 mg/mL
same,Sol.,"solvent Ethanol, ambient temperature, listed as Form A HCl salt of Compound (1)",19.9 mg/mL
same,Sol.,"solvent Ethyl acetate, ambient temperature, listed as Form A HCl salt of Compound (1)",0.2 mg/mL
same,Sol.,"solvent Ethyl ether, ambient temperature, listed as Form A HCl salt of Compound (1)",0.1 mg/mL
same,Sol.,"solvent Ethyl formate, ambient temperature, listed as Form A HCl salt of Compound (1)",0.4 mg/mL
same,Resulting Form,[7],Solvate
same,Sol.,"solvent Ethylene glycol, ambient temperature, listed as Form A HCl salt of Compound (1)",108.1 mg/mL
same,Resulting Form,[8],Solvate
same,Sol.,[8],214.0 mg/mL
same,Sol.,"solvent Heptane, ambient temperature, listed as Form A HCl salt of Compound (1)",<0.1 mg/mL
same,Sol.,[9],<0.1 mg/mL
same,Sol.,"solvent Isobutyl acetate, ambient temperature, listed as Form A HCl salt of Compound (1)",0.2 mg/mL
same,Sol.,"solvent Isopropyl acetate, ambient temperature, listed as Form A HCl salt of Compound (1)",0.4 mg/mL
same,Resulting Form,[10],Solvate
same,Sol.,"solvent Methanol, ambient temperature, listed as Form A HCl salt of Compound (1)",46.4 mg/mL
same,Sol.,"solvent Methyl acetate, ambient temperature, listed as Form A HCl salt of Compound (1)",0.6 mg/mL
same,Sol.,"solvent Methyl tetrahydrofuran, ambient temperature, listed as Form A HCl salt of Compound (1)",0.7 mg/mL
same,Sol.,"solvent Methylbutyl ketone, ambient temperature, listed as Form A HCl salt of Compound (1)",0.4 mg/mL
same,Sol.,[11],<0.1 mg/mL
same,Sol.,"solvent Methylethyl ketone, ambient temperature, listed as Form A HCl salt of Compound (1)",0.5 mg/mL
same,Sol.,"solvent Nitromethane, ambient temperature, listed as Form A HCl salt of Compound (1)",<0.1 mg/mL
same,Sol.,"solvent Pentane, ambient temperature, listed as Form A HCl salt of Compound (1)",<0.1 mg/mL
same,Sol.,"solvent Propyl acetate, ambient temperature, listed as Form A HCl salt of Compound (1)",0.8 mg/mL
same,Sol.,"solvent Tetrahydrofuran, ambient temperature, listed as Form A HCl salt of Compound (1)",0.7 mg/mL
same,Sol.,[12],<0.1 mg/mL
same,Sol.,"solvent Toluene, ambient temperature, listed as Form A HCl salt of Compound (1)",<0.1 mg/mL
same,stability in solvent systems,"solvent systems listed in b317 (chlorobenzene to methyl tetrahydrofuran), ambient temperature, 2 weeks",stable
same,Sol.,"solvent t-Butylmethylether, ambient temperature, listed as Form A HCl salt of Compound (1)",0.4 mg/mL
same,Sol.,"solvent xylene, ambient temperature, listed as Form A HCl salt of Compound (1)",<0.1 mg/mL
O=C(O)[C@H]1C2CCC(CC2)C1Nc1nc(-c2c[nH]c3ncc(F)cc23)ncc1F (stereo partly shown) [Form A free base Compound (1)],solubility thermodynamic at 2 weeks,physchem,< 100 µg/mL
same,water activity where the hydrate form was observed,[2],greater than 0.6
same,Sol.,"solvent 1,1,2-Trichloroethane, ambient temperature",1.0 mg/mL
same,Sol.,"solvent 1,2-Dichloroethane, ambient temperature",0.4 mg/mL
same,Sol.,"solvent 1,2-Dimethoxyethane, ambient temperature",114.0 mg/mL
same,Resulting Form,[13],Solvate (1:1)
same,Sol.,[13],21.3 mg/mL
same,Sol.,"solvent 1-Butanol, ambient temperature",21.0 mg/mL
same,Resulting Form,[14],No signal
same,Sol.,[14],14.5 mg/mL
same,Resulting Form,[15],Solvate
same,Sol.,[15],15.9 mg/mL
same,Resulting Form,[16],Solvate (1:1)
same,Sol.,[16],14.0 mg/mL
same,Resulting Form,[17],Amorphous
same,Sol.,[17],>113 mg/mL
same,Resulting Form,[18],Amorphous
same,Sol.,[18],>114 mg/mL
same,Sol.,"solvent 2-Methy-1-propanol, ambient temperature",12.2 mg/mL
same,Resulting Form,[19],Solvate(1:1)
same,Sol.,[19],12.9 mg/mL
same,Sol.,"solvent 3-Methyl-1-butanol, ambient temperature",9.7 mg/mL
same,Resulting Form,[20],Solvate
same,Sol.,[20],16.3 mg/mL
same,Sol.,"solvent Acetonitrile, ambient temperature",1.0 mg/mL
same,Sol.,"solvent Anisole, ambient temperature",0.7 mg/mL
same,Sol.,"solvent Butyl acetate, ambient temperature",8.1 mg/mL
same,Sol.,"solvent Chlorobenzene, ambient temperature",0.4 mg/mL
same,Sol.,"solvent Chloroform, ambient temperature",3.8 mg/mL
same,Sol.,"solvent Cumene, ambient temperature",0.3 mg/mL
same,Sol.,[5],<0.1 mg/mL
same,Sol.,"solvent Dichloromethane, ambient temperature",0.9 mg/mL
same,Resulting Form,[21],No signal
same,Sol.,[21],>113 mg/mL
same,Resulting Form,[22],No signal
same,Sol.,[22],35.5 mg/mL
same,Sol.,"solvent Ethyl acetate, ambient temperature",11.6 mg/mL
same,Sol.,"solvent Ethyl ether, ambient temperature",3.5 mg/mL
same,Sol.,"solvent Ethyl formate, ambient temperature",8.1 mg/mL
same,Sol.,[7],10.4 mg/mL
same,Sol.,"solvent Formamide, ambient temperature",7.0 mg/mL
same,Resulting Form,[23],Amorphous
same,Sol.,[23],>89.4 mg/mL
same,Sol.,"solvent Heptane, ambient temperature",<1.5 mg/mL
same,Sol.,[9],<0.1 mg/mL
same,Sol.,"solvent Isobutyl acetate, ambient temperature",4.4 mg/mL
same,Sol.,"solvent Isopropyl acetate, ambient temperature",6.2 mg/mL
same,Resulting Form,[10],Solvate
same,Sol.,[10],25.5 mg/mL
same,Resulting Form,[24],Solvate
same,Sol.,[24],9.4 mg/mL
same,Resulting Form,[25],Solvate(1:1)
same,Sol.,[25],34.8 mg/mL
same,Sol.,"solvent Methylbutyl ketone, ambient temperature",20.0 mg/mL
same,Sol.,[11],<0.1 mg/mL
same,Resulting Form,[26],Amorphous
same,Sol.,[26],27.3 mg/mL
same,Resulting Form,[27],Solvate
same,Sol.,[27],>150 mg/mL
same,Resulting Form,[28],Solvate
same,Sol.,[28],39.2 mg/mL
same,Sol.,"solvent N-Methylpyrrolidinone, ambient temperature",>149 mg/mL
same,Sol.,"solvent Nitromethane, ambient temperature",0.3 mg/mL
same,Sol.,"solvent Pentane, ambient temperature",<0.3 mg/mL
same,Sol.,"solvent Propyl acetate, ambient temperature",7.5 mg/mL
same,Resulting Form,[29],Solvate(1:1)
same,Sol.,[29],61.2 mg/mL
same,Sol.,[12],<0.1 mg/mL
same,Sol.,"solvent Toluene, ambient temperature",0.3 mg/mL
same,Resulting Form,"solvent Water-IPA 1:1, ambient temperature",Solvate
same,Resulting Form,"solvent Water-MeOH 1:1, ambient temperature",Solvate
same,Resulting Form,"solvent Water-MeOH 1:3, ambient temperature",Solvate
same,Sol.,"solvent acetic acid, ambient temperature",42.8 mg/mL
same,stability in solvent systems,solvent systems listed in b344 (acetonitrile to water-acetonitrile),stable
same,Resulting Form,[30],Amorphous
same,Sol.,[30],10.4 mg/mL
same,Resulting Form,[31],Solvate
same,Sol.,[31],0.3 mg/mL
